Source: US20230272368A1, “PRODUCTS AND METHODS FOR DETECTION OF VIRAL NUCLEIC ACID” (priority 2020, published 2023)

Settings: compared with sodium dodecyl sulfate (SDS)

sodium lauroyl sarcosinate [SLS]
solubility in the compositions: detergent to be substantially more soluble in our
